Earlier results in US20230120480A1, “METHODS FOR REMOVING CONTAMINANTS FROM PLANT-DERIVED PHARMACEUTICALS” (priority 2021, published 2023).

Tested on: not given

Molecule | Water Soluble?
C=C(C)[C@@H]1CC[C@](C)(O)[C@H]2Oc3c(C(=O)O)c(CCCCC)cc(O)c3[C@@H]12 [Cannabielsoic acid B] | No
CC1=CC2c3c(cc(C)c(C(=O)O)c3O)OC(C)(C)C2CC1 (stereo not shown) [Delta-9-tetrahydrocannabiorcolic acid] | Yes
CCCc1cc(O)c2c(c1)OC1(C)CCC(C(C)(C)O)C2C1 (stereo not shown) [Cannabiglendol] | No
CCCCCc1cc(O)c2c(c1)OC(C)(C)[C@H](CCC(C)=O)C2=O [Cannabichromanon] | No
CCCCCc1cc(O)c2c(c1)OC(C)(C)[C@@H]1CC[C@](C)(O)[C@@H](O)[C@@H]21 [Cannabiripsol] | No
CCCCCc1cc2c(c(O)c1C(=O)O)[C@@H]1CC(C)=CC[C@H]1C(C)(C)O2 [Delta-8-tetrahydrocannabinolic acid] | Yes
C=C(C)c1ccc(C)cc1-c1c(O)cc(CCC)cc1O [Cannabinodivarin] | No
Cc1cc(O)c2c(c1)OC(C)(C)c1ccc(C)cc1-2 [Cannabiorcool] | No
CCCc1cc(O)c2c(c1)OC(C)(C)C1=C2C(O)C(C)(O)CC1 (stereo not shown) [Cannabitriolvarin] | No
C=C(C)[C@@H]1CCC(C)=C[C@H]1c1c(O)cc(CCCCC)c(C(=O)O)c1O [Cannabidiolic acid] | No
CCCCCc1cc(O)c2c(c1)OC(C)(C)C1=C2CC(C)(O)C(O)C1 (stereo not shown) [8,9-Dihydroxy-delta-6a-tetrahydrocannabinol] | No
C=C(C)[C@@H]1CCC(C)=C[C@H]1c1c(O)cc(CCC)cc1O [Cannabidivarin] | No
C=C(C)[C@@H]1CCC(C)=C[C@H]1c1c(O)cc(CCCCC)cc1OC [Cannabidiol monomethylether] | No
CCCCc1cc2c(c(O)c1C(=O)O)[C@@H]1C=C(C)CC[C@H]1C(C)(C)O2 [Delta-9-tetrahydrocannabinolic acid-C4] | Yes
CCCCCc1cc2c(c(O)c1C(=O)O)[C@@H]1C=C(C)CC[C@H]1C(C)(C)O2 [Delta-9-tetrahydrocannabinolic acid A] | Yes
Dehydrocannabifuran | No
CCCc1cc(O)c2c(c1)OC1(C)CCC3C1C2C3(C)C (stereo not shown) [Cannabicyclovarin] | No
CCCCCc1cc(O)c(C/C=C(\C)CCC=C(C)C)c(O)c1 [Cannabigerol] | No

Tested on: humans

Molecule | toxicity to humans
CCCCOCCOCCOCc1cc2c(cc1CCC)OCO2 [Piperonyl butoxide] | non-toxic
